Measurements as given in patent publication US20030187261A1, “Purine derivatives, process for their preparation and use thereof” (priority 2000, published 2003).

What was measured:
β-adrenergic receptors = assay: isoproterenol-induced intracellular cAMP synthesis in rat C6 glioma; type: cell-based; settings: cAMP induced by 5 μM (−) isoproterenol
Method: Rat C6 glioma (ATCC N° CCL107) was cultivated in monolayer in serum-free chemically defined medium containing Ham's F10/minimal essential medium (1:1 vol/vol), 2 mM L-glutamine, 1% (vol/vol) minimal essential medium vitamins (100×), 1% (vol/vol) minimal essential medium nonessential amino acids (100×), 100 U/ml penicillin, 100 μg/ml streptomycin and 30 nM sodium selenite. Incubation was at 37° C. in a humidified atmosphere. Assays were performed in the logaritmic growth phase at a density of 2.5×10^5 cells/cm^2. Intracellular cAMP synthesis was induced by addition of 5 μM (−) isoproterenol. After 30 min incubation at 37° C. the medium was removed and the cellular amount of cAMP determined using the cAMP-enzyme immunoassay kit of Amersham. The IC50 is determined from a dose-response curve in duplicate. The effect of seven purine-analogs was measured after simultaneous addition with isoproterenol.
As P2Y1-like and A2 purinergic receptors, negatively and positively coupled to adenylate cyclase respectively, are present on rat C6 glioma the modulation of the synthesis of cAMP may be due to inhibition of the activation of β-adrenergic receptors by isoproterenol or to activation of purinergic receptors.

[1] = tested on: adult bone marrow CD34+CD38- cells; assay: pre-CFU assay; type: cell-based, human; settings: 14 day liquid culture, total clonogenic output after secondary methylcellulose culture
Source text: […]. Cells with low-to-medium forward and low side scatter, highly positive green (CD34) fluorescence, and an orange (CD38) fluorescence signal lower than the mean fluorescence of cells labeled with an irrelevant isotype-matched control antibody+2 standard deviations were retained as CD34^+CD38^− cells and used in pre-CFU assays.
Pre-CFU assays were initiated by performing liquid cultures of CD34^+CD38^− cells in duplicate in 96-well flat-bottomed plates in IMDM/10% FCS, 1% bovine serum albumin (BSA), 100 U/ml IL-1, 200 U/ml IL-6, 30 U/ml IL-3 and 100 ng/ml stem cell factor (SCF). Pre-CFU cultures were initiated with 500 CD34^+CD38^− cells/well (200 μl). After 14 days of culture at 37° C. in 7.5% O2 and 5% CO2 in a fully humidified incubator, the number of cells in each well was counted. Subsequently, the cells were harvested, washed three times in IMDM/10% FCS, and plated in duplicate at 500 cells/well (1000 μl) in secondary methylcellulose CFU cultures as described for CFU assays.
Pre-CFU were cultured starting from adult bone marrow CD34^+CD38^− cells, that had been isolated using the FCM cell sorter. Novel compounds were added at different concentrations to the primary 14 day liquid culture. IC50 was calculated from dose-response curves from total clonogenic output after secondary methylcellulose culture (Table 5).

CDC2 = target: T1, CDC2 (Homo sapiens, UniProt P06493); assay: p34cdc2 (CDC2) kinase inhibition assay, histone H1 substrate; type: biochemical; settings: Table 5, CDC2 activity in cell free system
T1 construct: made in house; host or cells: Sf9 insect cells, baculovirus co-infection
Method: Cyclin-dependent kinases (p34^cdc2, p33^cdk2, p33^cdk4 and cyclins (cyclin B, E and DI) are produced in Sf9 insect cells coinfected with appropriate baculoviral constructs. The cells are harvested 68-72 hrs post infection in lysis buffer for 30 min on ice and the soluble fraction is recovered by centrifugation at 14.000 g for 10 min. The protein extract is stored at −80° C.
To carry out experiments on kinetics under linear conditions, the final point test system for kinase activity measurement is used. The kinase is added to the reaction mixture in such a way that linear activity is obtained with respect to the concentration of enzyme and with respect to time.
Inhibition of p33^cdk4 kinase is determined with Rb-GST (0.2 mg/ml) as the substrate. Kinase activity is determined at 30° C. in kinase buffer.
Tested compounds are usually dissolved to 100 mM solutions in DMSO, the final concentration of DMSO in reaction mixture never exceeds 1%. The controls contain suitable dilutions of DMSO. After 10 min, the addition of 3×SDS sample buffer stops the incubations. […] The measurement of kinase activity is done using digital image analysis. The kinase activity is expressed as a percentage of maximum activity, the apparent inhibition constants are determined by graphic analysis. Kinase buffer: 50 mM Hepes pH 7.4, 10 mM MgCl21 5 mM EGTA, 10 mM 2-glycerolphosphate,

B16 melanoma = assay: MTT cytotoxicity assay, B16; type: cell-based, mouse; settings: Mus musculus, B16, 72 hours (TCS50 in the method)
How it was run: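 Cells pre-incubated 24 h, then exposed to six 4-fold dilutions (top well concentration typically 266.7 μM) in duplicate for 72 h at 37 °C, 5% CO2. MTT read-out, SDS-solubilized formazan measured at 540 nm. TCS50, the concentration lethal to 50% of tumour cells, derived from dose-response curves.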

T1 sequence (P06493 whole entry, species assumed): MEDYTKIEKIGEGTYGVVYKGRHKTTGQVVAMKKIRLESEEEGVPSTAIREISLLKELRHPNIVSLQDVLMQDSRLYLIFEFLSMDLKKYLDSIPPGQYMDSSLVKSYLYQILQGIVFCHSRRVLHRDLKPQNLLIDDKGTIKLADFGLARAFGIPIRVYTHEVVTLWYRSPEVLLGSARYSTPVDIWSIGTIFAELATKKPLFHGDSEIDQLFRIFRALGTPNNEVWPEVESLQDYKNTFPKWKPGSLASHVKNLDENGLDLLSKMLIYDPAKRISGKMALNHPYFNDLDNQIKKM
T1 sequence (P14635 whole entry partner, species assumed): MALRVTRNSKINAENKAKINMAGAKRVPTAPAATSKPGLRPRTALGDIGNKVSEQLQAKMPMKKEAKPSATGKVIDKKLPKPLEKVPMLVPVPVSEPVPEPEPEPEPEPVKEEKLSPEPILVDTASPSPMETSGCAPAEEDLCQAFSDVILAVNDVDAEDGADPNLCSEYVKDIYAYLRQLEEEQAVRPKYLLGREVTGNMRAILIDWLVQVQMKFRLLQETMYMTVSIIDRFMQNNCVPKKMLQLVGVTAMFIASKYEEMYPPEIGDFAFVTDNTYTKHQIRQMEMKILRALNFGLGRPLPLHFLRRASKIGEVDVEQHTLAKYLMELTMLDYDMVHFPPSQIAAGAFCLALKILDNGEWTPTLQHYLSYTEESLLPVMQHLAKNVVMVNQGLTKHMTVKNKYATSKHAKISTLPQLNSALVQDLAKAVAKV

Effect: fold activation (β-adrenergic receptors; 50 μM) | IC50 [1] | IC50 (CDC2) | Effect (β-adrenergic receptors; 30 min, rat C6 glioma) | IC50 (β-adrenergic receptors; 30 min, read-out: I50) | IC50 ([1]; Homo sapiens, 336 h) | Molecule | IC50 (B16 melanoma)
1.3-fold activation | 3.5 µM | 1.5 µM |  |  |  | 2-(3-aminoethylamino)-6-(3,3-dihydroxybenzyl)amino-9-isopropylpurine [P28] | 
 |  | 60 µM | inhibition | 15 ± 2 µM | > 25 µM | CCCCCCNc1nc(NC(CO)c2ccccc2)c2ncn(C(C)C)c2n1 (centres unmarked) [P23, 2-(hexylamino)-6-(1-phenyl-2-hydroxyethylamino)-9-isopropylpurine] | 36.8 µM
